# Structures can show the parent of a compound that is named as a salt.
# System: rice (cultivar: Nipponbare)
# Experiment: Evaluation test for reduction of drought stress by rice seed treatment (plant weight)
# Type: in vivo
# Details: with drought stress conditions; for Ratio to non-treated group: fresh weight of above-ground part; for Fresh weight of the above-ground part: seed treatment, average of 3 repetitions
# Description: Evaluation Test for Reduction of Drought Stress by Rice Seed Treatment (Plant Weight) A Blank slurry solution containing 5% (V/V) color coat red (Becker Underwood, Inc.), 5% (V/V) CF-Clear (Becker Underwood, Inc.) and 0.4% Maxim XL (Syngenta) was prepared. A sodium salt of the compound “A” was dissolved in the Blank slurry to obtain a slurry solution containing the sodium salt of the compound “A” in a concentration of 333 to 10,000 ppm. In a 50-ml centrifuge tube made of a plastic, 300 μl of the above slurry solution was added to 10 g of rice seeds (cultivar: Nipponbare), followed by stirring for 3 to 5 minutes and further drying of the seeds. As a control, seeds treated by using the Blank slurry in place of the above slurry solution were used as seeds for a non-treated group. On wells of a 406-well plug plate, a filter paper was placed and rice seeds subjected to the above seed treatment were sown on the filter paper. Using a two-fold diluted Kimura B water culture solution (Plant Science 119: 39-47 (1996)), cultivation was performed for 14 days under the conditions of a temperature of 28° C./23° C. (day/night), an illuminance of 8,500 1× and a day length of 12 hours to obtain test plants. Test plants (each 5 seedlings) were placed in an empty 35 ml flat-bottomed test tube ([…]/manufactured by Sarstedt) and then left to stand for 2 days without being capped (this was used as a test group with the drought stress conditions). As a test group without the drought stress conditions, the test plants (each 5 seedlings) were placed in a centrifuge tube filled with 10 ml of a two-fold diluted Kimura B water culture solution, and then left to stand for 2 days without being capped. After that, the plants (each 5 seedlings) were transplanted to a plastic pot (N-71-130G, manufactured by TOKAN KOGYO CO., LTD.) filled with the field soil which had been subjected to a sterilization treatment and then cultivated for 14 days under the conditions of a temperature of 28° C./23° C. (day/night), an illuminance of 8,500 1× and a day length of 12 hours while performing bottom-surface irrigation. After the drought stress treatment, the fresh weight of the above-ground part of the five individuals of test plants in each test group was collectively measured and an average of 3 repetitions of each test group was determined. As a result, the fresh weight of the above-ground part of the test group in the present invention was apparently large as compared with the control and drought stress was reduced.
smiles,measurement,setting,value
"O=C(O)CCC(=O)NCCc1ccccc1 [Compound A, Na salt, 4-oxo-4-(2-phenylethyl)aminobutyric acid]",Ratio to non-treated group,0.01 mg/g of seeds,105%
same,Ratio to non-treated group,0.1 mg/g of seeds,105%
same,Ratio to non-treated group,0.25 mg/g of seeds,119%
same,Ratio to non-treated group,0.3 mg/g of seeds,121%
same,Fresh weight of the above-ground part,amount of chemical 0.01 mg/g of seeds,0.73 g/5 seedlings
same,Fresh weight of the above-ground part,amount of chemical 0.1 mg/g of seeds,0.73 g/5 seedlings
same,Fresh weight of the above-ground part,amount of chemical 0.25 mg/g of seeds,0.83 g/5 seedlings
same,Fresh weight of the above-ground part,amount of chemical 0.3 mg/g of seeds,0.84 g/5 seedlings
